Assay [1] deals with U251 cells. Put plainly: Cell growth inhibition assay (CellTiter-Glo). In kind it is cell-based, human. Here is the method:
The U251 cell line was kindly provided by Prof. Koji Kawakami (Kyoto University). RPMI8226 and SH-SY5Y cell lines were obtained from RIKEN BRC Cell Bank (Chiba, Japan). U251 and RPMI8226 cells were grown and maintained in RPMI1640 medium (Nacalai Tesque Inc.) supplemented with 10% fetal bovine serum, 100 units/mL penicillin, and 100 μg/mL streptomycin at 37 °C in 5% CO2. SH-SY5Y cells were grown and maintained in DMEM medium (Nacalai Tesque Inc.) supplemented with 10% fetal bovine serum, 100 units/mL penicillin, and 100 μg/mL streptomycin at 37 °C in 5% CO2.
U251, RPMI8226, or SH-SY5Y cells were seeded in triplicate wells in a 96-well plate at a density of 5 × 10^3 cells/well and incubated with various concentrations (0.1–100 µM) of inhibitory compounds dissolved in DMSO for 24 or 48 h. The amount of intracellular ATP was determined by CellTiter-Glo Luminescent Cell Viability Assay (Promega Co.) according to the manufacturer’s protocol. Intracellular proteasome activity was measured using the Proteasome-Glo Assay reagent (Promega Co.) according to the manufacturer’s protocol.
Background: In ATP-based viability assays light output follows the ATP content of the culture.

The target of assay [2] is T1, intracellular proteasomes of U251 cells (Homo sapiens, UniProt P25787+P60900).
T1 construct: endogenous in cells; host or cells: U251, RPMI8226, SH-SY5Y
Put plainly: Intracellular proteasome CT-L activity (Proteasome-Glo) in U251 cells. In kind it is cell-based.
Method: Intracellular proteasome activity was measured using the Proteasome-Glo Assay reagent (Promega Co.) according to the manufacturer’s protocol [46].

Assay [3] deals with human 20S proteasome (Homo sapiens, UniProt P25787+P60900). Put plainly: Photoaffinity labeling of 20S CP. In kind it is binding. Conditions: UV 365 nm, 2D-PAGE, LC-MS identification. Here is the method:
After the reaction, the product was purified by reversed-phase HPLC, and molecular weight was confirmed by mass spectrometry, as described above.
(§1) The reaction mixture was exposed to UV light (365 nm) for 30 min on ice, and proteins were separated by SDS-PAGE, transferred onto a polyvinylidene difluoride membrane (ATTO Co., Ltd., Tokyo, Japan), and probed with horseradish peroxidase-conjugated streptavidin (Cytiva, Danaher Co., Washington, DC, USA). Chemiluminescence images were obtained using an ImageQuant LAS-4000 instrument (Cytiva). Isoelectric focusing for 2D-PAGE was performed using a DiscRun AE-6541 apparatus (ATTO Co., Ltd.) according to the manufacturer’s protocol. To identify the subunits of the 20S CP by LC-MS analysis, all bands visible following CBB staining were excised, dehydrated with acetonitrile for 10 min, and centrifuged in vacuo to dryness. Dried samples were placed in trypsin solution, and hydrolysis was carried out at 37 °C for 16 h. Reaction products were recovered using 0.1% formic acid and analyzed by LC-MS-IT-TOF (Shimadzu Corporation, Kyoto, Japan) and Mascot Version 2.4 (Matrix Science, London, UK).

Assay [4] has as its target 26S holoenzyme (Homo sapiens, UniProt P25787+P60900). Put plainly: Photoaffinity labeling of 26S holoenzyme. In kind it is binding. Conditions: after UV irradiation. Here is the method:
as §1

Where no end group is shown, it is not given here. BAED = biotinylated photoreactive group derived from Sulfo-SBED

For the compound `CC(C)C[C@H](NC(=O)[C@H](Cc1ccccc1)NC(=O)c1cnccn1)B(O)O` [bortezomib], in assay [1], the “Cell death (in words)” value is given as “induced cancer cell death”. Also, the “Effect on CT-L activity of intracellular proteasomes (in words)” value in assay [2] is listed as “did not increase CT-L activity to the same degree”.

For the compound “BAED-20S-BP1(5-12): photoreactive biotinylated peptide: 20S-BP1(5-12) with N-terminal BAED group, made with Sulfo-SBED ({BAED}-SRLRHWWR)”, the “Photoaffinity-labeled subunits of 20S CP” value in assay [3] is “α1 and β4 subunits”. Further, the “Photoaffinity labeling of 26S holoenzyme (in words)” value in assay [4] is reported as “no detectable labeling”.

The record behind these values is PMC10743564, “Acceleration of Protein Degradation by 20S Proteasome-Binding Peptides Generated by In Vitro Artificial Evolution” (International Journal of Molecular Sciences, 2023).
